Measured values reported in article PMC12067278, “A responsive living material prepared by diffusion reveals extracellular enzyme activity of cyanobacteria” (Proceedings of the National Academy of Sciences of the …, 2025).

Molecular target: T1, AmiX (Synpcc7942_1548 gene product, putative amidase) (Synechococcus elongatus, UniProt Q31MZ1)
T1 construct: expressed in E. coli BL21, clarified lysate assayed; ORF PCR product ~1,320 bp
T1 sequence (Q31MZ1 1-439 limits assumed): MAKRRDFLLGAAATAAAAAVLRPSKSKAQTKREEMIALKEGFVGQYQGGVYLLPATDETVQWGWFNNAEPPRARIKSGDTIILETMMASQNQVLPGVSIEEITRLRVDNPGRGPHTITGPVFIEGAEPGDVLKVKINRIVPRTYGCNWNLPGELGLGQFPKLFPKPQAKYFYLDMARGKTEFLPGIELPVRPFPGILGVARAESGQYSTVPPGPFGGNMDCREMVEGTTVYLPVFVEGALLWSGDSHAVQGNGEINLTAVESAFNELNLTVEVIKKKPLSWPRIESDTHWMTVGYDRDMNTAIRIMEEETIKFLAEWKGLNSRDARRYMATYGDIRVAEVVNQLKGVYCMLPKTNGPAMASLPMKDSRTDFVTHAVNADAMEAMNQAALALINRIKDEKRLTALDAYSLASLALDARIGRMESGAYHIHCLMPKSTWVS
Assay: NBD-Cl amine-detection fluorescence assay ([…] nm), E. coli lysate
Type: biochemical
Settings: 50 mM potassium phosphate pH 7.5, 2.5 mM NIPAm (50 uL of 50 mM in 1 mL), 20 h, high lysate background

Compound: C=CC(=O)NC(C)C [NIPAm, N-isopropylacrylamide]
- NBD-Cl amine-detection fluorescence assay (485/538 nm), E. coli lysate: the lysate containing both the S. elongatus amidase and NIPAm produced significantly more fluorescence
